The assay concerns the target human PAD4 (hPAD4) (Homo sapiens (Human), UniProt Q9UM07). Kind of assay: RFMS Human PAD4 Functional Assay 1. It is filed as biochemical. Particulars: RFMS assay 1; 5 nM hPAD4, 250 μM BAEE substrate, 50 μM calcium, 37° C. In a few lines:
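Citrullination product read by RapidFire triple-quad MRM against a modified-citrulline internal standard, after TCA stop and 30 min phenyl glyoxal step at 37 °C. Reaction: 250 μM BAEE, 5 nM human PAD4, 90 min at 37 °C, pH 7.5 HEPES buffer with 50 μM calcium and 5 μM TPEN, following 30 min compound–enzyme preincubation (max 50 μM).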

human PAD4 (hPAD4), sequence (Q9UM07 whole entry): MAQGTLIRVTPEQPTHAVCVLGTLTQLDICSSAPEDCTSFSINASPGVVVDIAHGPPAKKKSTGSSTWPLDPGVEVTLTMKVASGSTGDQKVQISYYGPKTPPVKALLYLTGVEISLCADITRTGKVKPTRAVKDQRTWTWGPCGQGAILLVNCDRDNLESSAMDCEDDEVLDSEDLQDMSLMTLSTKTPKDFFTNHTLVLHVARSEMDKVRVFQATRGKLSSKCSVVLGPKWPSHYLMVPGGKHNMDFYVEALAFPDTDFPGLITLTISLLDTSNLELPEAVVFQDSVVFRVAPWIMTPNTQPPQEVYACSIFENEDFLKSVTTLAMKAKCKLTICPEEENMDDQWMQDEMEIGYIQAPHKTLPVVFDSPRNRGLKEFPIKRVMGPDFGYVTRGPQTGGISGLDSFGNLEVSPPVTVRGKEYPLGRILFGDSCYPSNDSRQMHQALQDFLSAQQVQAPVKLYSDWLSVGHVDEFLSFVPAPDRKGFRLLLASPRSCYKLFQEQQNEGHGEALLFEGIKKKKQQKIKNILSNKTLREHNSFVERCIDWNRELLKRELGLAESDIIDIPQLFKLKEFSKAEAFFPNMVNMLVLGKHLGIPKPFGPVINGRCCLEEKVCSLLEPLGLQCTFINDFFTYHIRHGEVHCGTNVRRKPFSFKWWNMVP

Broadly, the IC50 is the concentration at which inhibition is half-maximal. Turning to `Cc1c(-c2cc3ccc(N4CCNCC4)cc3n2CC2CC2)oc2cc(C(=O)N3C[C@H](N)C[C@@H](F)C3)ccc12` [Example 201, ((3R,5R)-3-Amino-5-fluoropiperidin-1-yl)(2-(1-(cyclopropylmethyl)-6-(piperazin-1-yl)-1H-indol-2-yl)-3-methylbenzofuran-6-yl)methanone], the IC50 amounted to 1970 nM. Then `COC1CCN(c2ccc3cc(-c4nn5cc(C(=O)N6CCC[C@@H](N)C6)cc(Cl)c5c4C)n(CC4CC4)c3n2)CC1` [Example 276, (3R)-1-{4-Chloro-2-[1-(cyclopropylmethyl)-6-(4-methoxypiperidin-1-yl)-1H-pyrrolo[2,3-b]pyridin-2-yl]-3-methylpyrazolo[1,5-a]pyridine-6-carbonyl}piperidin-3-amine], with 2770 nM. Take `Cc1c(-c2ccc3cc(-c4nn5cc(C(=O)N6CCC[C@@H](N)C6)ccc5c4C)n(CC4CC4)c3c2)cc(F)c2[nH]c(=O)ccc12` [Example 346, 6-(2-{6-[(3R)-3-Aminopiperidine-1-carbonyl]-3-methylpyrazolo[1,5-a]pyridin-2-yl}-1-(cyclopropylmethyl)-1H-indol-6-yl)-8-fluoro-5-methyl-1,2-dihydroquinolin-2-one]: the IC50 came to 60 nM. Turning to `Cc1c(-c2cc3cccc(C4CCN(C(=O)C5CCCO5)CC4)c3n2CC2CC2)nn2cc(C(=O)N3CCC[C@@H](N)C3)ccc12` (mixture of isomers) [Example 462, ((R)-3-aminopiperidin-1-yl)(2-(1-(cyclopropylmethyl)-7-(1-(tetrahydrofuran-2-carbonyl)piperidin-4-yl)-1H-indol-2-yl)-3-methylpyrazolo[1,5-a]pyridin-6-yl)methanone], the IC50 was 30 nM. For the molecule `COC(C)(C)C(=O)N1CCC(c2cccc3cc(-c4nn5cc(C(=O)N6CCC[C@@H](N)C6)cc(F)c5c4C)n(CC4CC4)c23)CC1` [Example 418, (R)-1-(4-(2-(6-(3-Aminopiperidin-1-carbonyl)-4-fluoro-3-methylpyrazolo[1,5-a]pyridin-2-yl)-1-(cyclopropylmethyl)-1H-indol-7-yl)piperidin-1-yl)-2-methoxy-2-methylpropan-1-one], the IC50 is 1710 nM.

As to `Cc1c(-c2cc3ccc(-c4ccc(C(N)=O)c(F)c4)nc3n2CC2CC2)nn2cc(C(=O)N3CC4CCC3[C@@H]4N)ccc12` (stereo partly drawn) [Example 69, 4-(2-(6-((7R)-7-Amino-2-azabicyclo[2.2.1]heptane-2-carbonyl)-3-methylpyrazolo[1,5-a]pyridin-2-yl)-1-(cyclopropylmethyl)-1H-pyrrolo[2,3-b]pyridin-6-yl)-2-fluorobenzamide], the half-inhibitory concentration (IC50) was determined as 19 nM. Then `Cc1c(-c2cc3ccc(-c4cccc(-c5nn[nH]n5)c4)cc3n2CC2CC2)nn2cc(C(=O)N3C[C@H](N)C[C@@H](F)C3)ccc12` [Example 368, (3R,5R)-1-{2-[1-(Cyclopropylmethyl)-6-[3-(2H-1,2,3,4-tetrazol-5-yl)phenyl]-1H-indol-2-yl]-3-methylpyrazolo[1,5-a]pyridine-6-carbonyl}-5-fluoropiperidin-3-amine], with 2800 nM. Turning to `COc1cc(C(=O)N2CCC[C@@H](N)C2)cn2nc(-c3cc4ccc(-c5ccc(NS(C)(=O)=O)cc5)cc4n3CC3CC3)c(C)c12` [Example 231, N-[4-(2-{6-[(3R)-3-Aminopiperidine-1-carbonyl]-4-methoxy-3-methylpyrazolo[1,5-a]pyridin-2-yl}-1-(cyclopropylmethyl)-1H-indol-6-yl)phenyl]methanesulfonamide], the IC50 was found to be 460 nM. On to `Cc1c(-c2cc3ccc(-c4cccc(O)c4F)nc3n2CC2CC2)nn2cc(C(=O)N3CCC[C@@H](N)C3)ccc12` [Example 314, 3-(2-{6-[(3R)-3-Aminopiperidine-1-carbonyl]-3-methylpyrazolo[1,5-a]pyridin-2-yl}-1-(cyclopropylmethyl)-1H-pyrrolo[2,3-b]pyridin-6-yl)-2-fluorophenol], for which the 50% inhibitory concentration (IC50) stood at 40 nM. As for `COC(C)(C)C(=O)N1CCC(c2cccc3cc(-c4nn5cc(C(=O)N6C[C@H](N)C[C@@H](F)C6)cc(F)c5c4C)n(CC4CC4)c23)CC1` [Example 417, 1-(4-(2-(6-((3R,5R)-3-Amino-5-fluoropiperidin-1-carbonyl)-4-fluoro-3-methylpyrazolo[1,5-a]pyridin-2-yl)-1-(cyclopropylmethyl)-1H-indol-7-yl)piperidin-1-yl)-2-methoxy-2-methylpropan-1-one], the IC50 came to 5060 nM.

`Cc1c(-c2cc3ccc(C(C)(C)O)cc3n2CC2CC2)oc2cc(C(=O)N3CC4CCC3[C@@H]4N)ccc12` (stereo partly drawn) [Example 204, ((7R)-7-Amino-2-azabicyclo[2.2.1]heptan-2-yl)(2-(1-(cyclopropylmethyl)-6-(2-hydroxypropan-2-yl)-1H-indol-2-yl)-3-methylbenzofuran-6-yl)methanone]: the IC50 came to 39 nM. Consider `COc1cc(C(=O)N2C[C@H](N)C[C@@H](F)C2)cn2nc(-c3cc4ccc(N5CC(N(C)S(C)(=O)=O)C5)cc4n3CC3CC3)c(C)c12` [Example 247, N-[1-(2-{6-[(3R,5R)-3-Amino-5-fluoropiperidine-1-carbonyl]-4-methoxy-3-methylpyrazolo[1,5-a]pyridin-2-yl}-1-(cyclopropylmethyl)-1H-indol-6-yl)azetidin-3-yl]-N-methylmethanesulfonamide], for which the half-maximal inhibitory concentration (IC50) is 120 nM.

For the molecule `COc1cc(C(=O)N2C[C@H](N)C[C@@H](F)C2)cc2sc(-c3cc4ccc(-c5ccc6c(c5)CNC6=O)cc4n3CC3CC3)c(C)c12` [Example 144, 5-(2-(6-((3R,5R)-3-Amino-5-fluoropiperidine-1-carbonyl)-4-methoxy-3-methylbenzo[b]thiophen-2-yl)-1-(cyclopropylmethyl)-1H-indol-6-yl)isoindolin-1-one], the half-maximal inhibitory concentration (IC50) was determined as 164 nM. Regarding `COc1cc(C(=O)N2CCC[C@@H](N)C2)cn2nc(-c3cc4ccnc(OCC5COC5)c4n3CC3CC3)c(C)c12` [Example 596, (R)-(3-Aminopiperidin-1-yl)(2-(1-(cyclopropylmethyl)-7-(oxetan-3-ylmethoxy)-1H-pyrrolo[2,3-c]pyridin-2-yl)-4-methoxy-3-methylpyrazolo[1,5-a]pyridin-6-yl)methanone], the IC50 worked out at 7390 nM. In the case of `Cc1c(-c2cc3ccc(C(C)(O)C(F)(F)F)nc3n2CC2CC2)nn2cc(C(=O)N3CC4CCC3[C@@H]4N)cc(F)c12` (stereo partly drawn) [Example 383, 2-(2-{6-[(7R)-7-Amino-2-azabicyclo[2.2.1]heptane-2-carbonyl]-4-fluoro-3-methylpyrazolo[1,5-a]pyridin-2-yl}-1-(cyclopropylmethyl)-1H-pyrrolo[2,3-b]pyridin-6-yl)-1,1,1-trifluoropropan-2-ol], the half-inhibitory concentration (IC50) is 40 nM. For the molecule `COCC(=O)N1CCC(c2cc(F)cc3cc(-c4nn5cc(C(=O)N6CCC[C@@H](N)C6)ccc5c4C)n(CC4CC4)c23)CC1` [Example 502, (R)-1-(4-(2-(6-(3-Aminopiperidine-1-carbonyl)-3-methylpyrazolo[1,5-a]pyridin-2-yl)-1-(cyclopropylmethyl)-5-fluoro-1H-indol-7-yl)piperidin-1-yl)-2-methoxyethan-1-one], the IC50 was 70 nM. For the molecule `Cc1c(-c2cc3ccc(C(C)(C)O)cc3n2CC2CC2)nn2cc(C(=O)N3CC4CCC3[C@@H]4N)ccc12` (stereo partly drawn) [Example 100, ((7R)-7-Amino-2-azabicyclo[2.2.1]heptan-2-yl)(2-(1-(cyclopropylmethyl)-6-(2-hydroxypropan-2-yl)-1H-indol-2-yl)-3-methylpyrazolo[1,5-a]pyridin-6-yl)methanone], the IC50 was 36 nM. Regarding `Cc1cc(-c2ccc3cc(-c4nn5cc(C(=O)N6CCC[C@@H](N)C6)cc(F)c5c4C)n(CC4CC4)c3n2)ccc1C(N)=O` [Example 286, 4-(2-{6-[(3R)-3-Aminopiperidine-1-carbonyl]-4-fluoro-3-methylpyrazolo[1,5-a]pyridin-2-yl}-1-(cyclopropylmethyl)-1H-pyrrolo[2,3-b]pyridin-6-yl)-2-methylbenzamide], the IC50 stood at 540 nM. Regarding `Cc1c(-c2ccc3cc(-c4nn5cc(C(=O)N6CCC[C@@H](N)C6)ccc5c4C)n(CC4CC4)c3n2)cc(F)c2[nH]c(=O)ccc12` [Example 312, 6-(2-{6-[(3R)-3-Aminopiperidine-1-carbonyl]-3-methylpyrazolo[1,5-a]pyridin-2-yl}-1-(cyclopropylmethyl)-1H-pyrrolo[2,3-b]pyridin-6-yl)-8-fluoro-5-methyl-1,2-dihydroquinolin-2-one], the IC50 came to 60 nM.

With `COc1cc(C(=O)N2CC3CCC2[C@@H]3N)cc2oc(-c3cc4ccc(Cl)nc4n3CC3CC3)c(C)c12` (stereo partly drawn) [Example 146, ((7R)-7-Amino-2-azabicyclo[2.2.1]heptan-2-yl)(2-(6-chloro-1-(cyclopropylmethyl)-1H-pyrrolo[2,3-b]pyridin-2-yl)-4-methoxy-3-methylbenzofuran-6-yl)methanone], the concentration for half-maximal inhibition (IC50) turned out to be 1210 nM.

As for `COc1cc(-c2ccc3cc(-c4oc5cc(C(=O)N6CC7CCC6[C@@H]7N)ccc5c4C)n(CC4CC4)c3c2)ccn1` (stereo partly drawn) [Example 186, ((7R)-7-Amino-2-azabicyclo[2.2.1]heptan-2-yl)(2-(1-(cyclopropylmethyl)-6-(2-methoxypyridin-4-yl)-1H-indol-2-yl)-3-methylbenzofuran-6-yl)methanone], the IC50 is 56 nM. As to `COc1cc(C(=O)N2CC3CCC2[C@@H]3N)cn2nc(-c3cc4ccnc(OCC5CNC(=O)C5)c4n3CC3CC3)c(C)c12` (single isomer, unassigned; isomer 2) [Example 606], the IC50 came out at 50 nM. Regarding `Cc1c(-c2cc3cc(F)cc(C4CCN(C(=O)CC(C)C)CC4)c3n2CC2CC2)nn2cc(C(=O)N3C[C@H](N)C[C@@H](F)C3)ccc12` [Example 495, 1-(4-(2-(6-((3R,5R)-3-Amino-5-fluoropiperidine-1-carbonyl)-3-methylpyrazolo[1,5-a]pyridin-2-yl)-1-(cyclopropylmethyl)-5-fluoro-1H-indol-7-yl)piperidin-1-yl)-3-methylbutan-1-one], the concentration for half-maximal inhibition (IC50) was 330 nM.

Source of the values: US12473304B2, “Heterocyclic PAD4 inhibitors” (BRISTOL-MYERS SQUIBB COMPANY, priority 2020, dated 2025).
